Results taken from patent US20100063047A1 (KALYPSYS, INC., priority 2008, published 2010).

How the values were obtained:
human H4 = molecular target: T1, human H4 (Homo sapiens, UniProt Q9H3N8); experiment: In vitro histamine H4 receptor cell-based aequorin bioluminescence antagonist assay; conditions: CHO-K1 cells expressing human H4, aequorin and Gα16; histamine at EC80
T1 construct: host or cells: CHO-K1, also expressing mitochondrion-targeted aequorin and human Gα16
Procedure: In vitro Histamine Receptor Cell-Based Assays
The cell-based assays utilize an aequorin dependent bioluminescence signal. Doubly-transfected, stable CHO—K1 cell lines expressing human H1 or H4, mitochondrion-targeted aequorin, and (H4 only) human G protein Gα16 are obtained from Perkin-Elmer. Cells are maintained in F12 (Ham's) growth medium, containing 10% (vol./vol.) fetal bovine serum, penicillin (100 IU/mL), streptomycin (0.1 mg/mL), zeocin (0.25 mg/mL) and geneticin (0.40 mg/mL). Cell media components are from Invitrogen, Inc. One day prior to assay, the growth medium is replaced with the same, excluding zeocin and geneticin.
For assay preparation, growth medium is aspirated, and cells are rinsed with calcium-free, magnesium-free phosphate-buffered saline, followed by two to three minute incubation in Versene (Invitrogen, Inc.) at 37° C. Assay medium (DMEM:F12 [50:50], phenol-red free, containing 1 mg/mL protease-free bovine serum albumin) is added to collect the released cells, which are then centrifuged. The cell pellet is re-suspended in assay medium, centrifuged once more, and re-suspended in assay medium to a final density of 5×10^6 cells/mL. Coelenterazine-h dye (500 μM in ethanol) is added to a final concentration of 5 μM, and mixed immediately. The conical tube containing the cells is then wrapped with foil to protect the light-sensitive dye. The cells are incubated for four hours further at room temperature (approximately 21° C.) with end-over-end rotation to keep them in suspension.
Just before assay, the dye-loaded cells are diluted to 0.75×10^6 cells/mL (H1 receptor) or 1.5×10^6 cells/mL (H4 receptor) with additional assay medium. Cells are dispensed to 1536 well micro-titer plates at 3 μL/well. To assay receptor antagonism, 60 nl of 100× concentration test compounds in 100% dimethyl sulfoxide (DMSO) are dispensed to the wells, one compound per well, by passive pin transfer, and the plates are incubated for 15 minutes at room temperature. […] The pipette dispenses 3 μL/well of agonist (histamine, at twice the final concentration, where final concentration is a previously determined EC80) in assay medium, with concurrent bioluminescence detection. Agonist activity of test compounds is excluded by separate assays that measure response to test compounds immediately, without added histamine agonist.
CCD image capture on the Lumilux includes a 5 second baseline read prior to agonist addition, and generally a 40 second read per plate after agonist addition. A decrease in bioluminescence signal (measured either as area-under-the-curve, or maximum signal amplitude minus minimum signal amplitude) correlates with receptor antagonism in a dose dependent manner. The negative control is DMSO lacking any test compound. For antagonist assays, the positive controls are diphenhydramine (2-Diphenylmethoxy-N,N-dimethylethylamine, 10 μM final concentration, H1 receptor) or JNJ7777120 (1-[(5-Chloro-1H-indol-2-yl)carbonyl]-4-methyl-piperazine, 10 μM final concentration, H4 receptor). Efficacy is measured as a percentage of positive control activity.

human H1 = molecular target: T2, human H1 (Homo sapiens, UniProt P35367); experiment: In vitro histamine H1 receptor cell-based aequorin bioluminescence antagonist assay; conditions: CHO-K1 cells expressing human H1 and aequorin; histamine at EC80; read-out: H1 Antagonist EC50
T2 construct: host or cells: CHO-K1, also expressing mitochondrion-targeted aequorin
T2 sequence (P35367 whole entry): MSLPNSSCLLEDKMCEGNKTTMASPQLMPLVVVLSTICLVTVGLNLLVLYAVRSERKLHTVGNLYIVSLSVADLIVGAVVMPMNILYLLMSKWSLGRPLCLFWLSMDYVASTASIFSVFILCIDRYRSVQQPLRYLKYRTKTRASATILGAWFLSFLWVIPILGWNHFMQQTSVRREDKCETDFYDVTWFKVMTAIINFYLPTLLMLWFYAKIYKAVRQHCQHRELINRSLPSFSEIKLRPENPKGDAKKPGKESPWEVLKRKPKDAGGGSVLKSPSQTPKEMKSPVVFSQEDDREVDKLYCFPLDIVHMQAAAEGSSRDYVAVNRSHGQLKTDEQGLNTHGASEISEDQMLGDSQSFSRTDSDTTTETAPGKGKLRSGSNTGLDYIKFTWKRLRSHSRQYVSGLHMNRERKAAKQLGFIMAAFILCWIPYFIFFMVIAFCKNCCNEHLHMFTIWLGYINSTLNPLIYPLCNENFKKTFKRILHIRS
Method in brief: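 CHO-K1 cells stably expressing human H1 or H4 plus mitochondrial aequorin (H4 also with Gα16), loaded with 5 μM coelenterazine-h for 4 h at ~21 °C. Compounds preincubated 15 min at room temperature, then histamine at EC80 added.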

Row | EC50 (human H4) | EC50 (human H1) | Structure (SMILES)
1 | > 10 µM | > 10 µM | COc1cc(CN(C)c2ncnc3scc(C)c23)cc(OC)c1OC [Example 276, N,5-dimethyl-N-[(3,4,5-trimethoxyphenyl)methyl]thieno[2,3-d]pyrimidin-4-amine]
2 | > 10 µM | > 10 µM | Cc1ccc(N2CCN(c3ncnc4scc(C)c34)CC2)cc1C [Example 257, 1-(3,4-dimethylphenyl)-4-{5-methylthieno[2,3-d]pyrimidin-4-yl}piperazine]
3 | > 10 µM | > 10 µM | Cc1csc2ncnc(N(CCC#N)Cc3ccccc3)c12 [Example 153, 3-[benzyl({5-methylthieno[2,3-d]pyrimidin-4-yl})amino]propanenitrile]
4 | > 10 µM | > 10 µM | Cc1csc2ncnc(NC3CC(C)(C)NC(C)(C)C3)c12 [Example 150, 2,2,6,6-tetramethyl-N-{5-methylthieno[2,3-d]pyrimidin-4-yl}piperidin-4-amine]
5 | > 10 µM | > 10 µM | Cc1csc2ncnc(N3CCC(O)(O)CC3)c12 [Example 228, 1-{5-methylthieno[2,3-d]pyrimidin-4-yl}piperidine-4,4-diol]
6 | > 10 µM | > 10 µM | CCCN(CCC)c1ncnc2scc(C)c12 [Example 196, 5-methyl-N,N-dipropylthieno[2,3-d]pyrimidin-4-amine]
7 | > 10 µM | > 10 µM | Cc1csc2ncnc(NCCC3CCCN3C)c12 (centres unmarked) [Example 106, 5-methyl-N-[2-(1-methylpyrrolidin-2-yl)ethyl]thieno[2,3-d]pyrimidin-4-amine]
8 | > 10 µM | > 10 µM | Cc1csc2ncnc(N3CCN(c4cccc(C(F)(F)F)c4)CC3)c12 [Example 288, 1-{5-methylthieno[2,3-d]pyrimidin-4-yl}-4-[3-(trifluoromethyl)phenyl]piperazine]
9 | > 10 µM | > 10 µM | Cc1csc2ncnc(N(C)C)c12 [Example 178, N,N,5-trimethylthieno[2,3-d]pyrimidin-4-amine]
10 | > 10 µM | > 10 µM | C#CCNc1ncnc2scc(C)c12 [Example 51, 5-methyl-N-(prop-2-yn-1-yl)thieno[2,3-d]pyrimidin-4-amine]
11 | > 10 µM | > 10 µM | Cc1ccc([C@@H](C)Nc2ncnc3scc(C)c23)cc1 [Example 115, 5-methyl-N-[(1R)-1-(4-methylphenyl)ethyl]thieno[2,3-d]pyrimidin-4-amine]
12 | > 10 µM | > 10 µM | CCN(C)c1ncnc2scc(C)c12 [Example 179, N-ethyl-N,5-dimethylthieno[2,3-d]pyrimidin-4-amine]
13 | > 10 µM | > 10 µM | COc1ccc(N2CCN(c3ncnc4scc(C)c34)CC2)cc1OC [Example 4, 4-(4-(3,4-dimethoxyphenyl)piperazin-1-yl)-5-methylthieno[2,3-d]pyrimidine]
14 | > 10 µM | > 10 µM | Cc1csc2ncnc(N3CCC[C@@H]3CO)c12 [Example 194, [(2R)-1-{5-methylthieno[2,3-d]pyrimidin-4-yl}pyrrolidin-2-yl]methanol]
15 | > 10 µM | > 10 µM | CCCCN(CC)c1ncnc2scc(C)c12 [Example 195, N-butyl-N-ethyl-5-methylthieno[2,3-d]pyrimidin-4-amine]
16 | > 10 µM | > 10 µM | Cc1csc2ncnc(NCCN3CCCC3)c12 [Example 92, 5-methyl-N-[2-(pyrrolidin-1-yl)ethyl]thieno[2,3-d]pyrimidin-4-amine]
17 | > 10 µM | > 10 µM | Cc1csc2ncnc(NCc3ccccc3OC(F)(F)F)c12 [Example 172, 5-methyl-N-{[2-(trifluoromethoxy)phenyl]methyl}thieno[2,3-d]pyrimidin-4-amine]
18 | > 10 µM | > 10 µM | CCOC(=O)N1CCN(c2ncnc3scc(C)c23)CC1 [Example 230]
19 | > 10 µM | > 10 µM | C#CCN(C)c1ncnc2scc(C)c12 [Example 180, N,5-dimethyl-N-(prop-2-yn-1-yl)thieno[2,3-d]pyrimidin-4-amine]

Row | EC50 (human H4) | EC50 (human H1) | Structure (SMILES)
20 | > 10 µM | > 10 µM | CNc1ncnc2scc(C)c12 [Example 49, N,5-dimethylthieno[2,3-d]pyrimidin-4-amine]
21 | > 10 µM | > 10 µM | CCN(CC)CCCC(C)Nc1ncnc2scc(C)c12 (centres unmarked) [Example 151, diethyl[4-({5-methylthieno[2,3-d]pyrimidin-4-yl}amino)pentyl]amine]
22 | > 10 µM | > 10 µM | Cc1ccc(S(=O)(=O)NCCNc2ncnc3scc(C)c23)cc1 [Example 177, 4-methyl-N-[2-({5-methylthieno[2,3-d]pyrimidin-4-yl}amino)ethyl]benzene-1-sulfonamide]
23 | > 10 µM | > 10 µM | CC(=O)N[C@H]1CCN(c2ncnc3scc(C)c23)C1 [Example 212, N-[(3S)-1-{5-methylthieno[2,3-d]pyrimidin-4-yl}pyrrolidin-3-yl]acetamide]
24 | > 10 µM | > 10 µM | Cc1csc2ncnc(N3CCN(c4ccc(C(C)(C)C)cc4)CC3)c12 [Example 284, 1-(4-tert-butylphenyl)-4-{5-methylthieno[2,3-d]pyrimidin-4-yl}piperazine]
25 | > 10 µM | > 10 µM | CCCNc1ncnc2scc(C)c12 [Example 54, 5-methyl-N-propylthieno[2,3-d]pyrimidin-4-amine]
26 | > 10 µM | > 10 µM | Cc1csc2ncnc(NCc3cccnc3)c12 [Example 84, 5-methyl-N-(pyridin-3-ylmethyl)thieno[2,3-d]pyrimidin-4-amine]
27 | > 10 µM | > 10 µM | COc1cccc(N2CCN(c3ncnc4scc(C)c34)CC2)c1 [Example 263, 1-(3-methoxyphenyl)-4-{5-methylthieno[2,3-d]pyrimidin-4-yl}piperazine]
28 | > 10 µM | > 10 µM | Cc1csc2ncnc(N3CCC(C)CC3)c12 [Example 191, 4-methyl-1-{5-methylthieno[2,3-d]pyrimidin-4-yl}piperidine]
29 | > 10 µM | > 10 µM | COc1ccc(CCN(C)c2ncnc3scc(C)c23)cc1OC [Example 264, N-[2-(3,4-dimethoxyphenyl)ethyl]-N,5-dimethylthieno[2,3-d]pyrimidin-4-amine]
30 | > 10 µM | > 10 µM | Cc1csc2ncnc(N(C)CCC#N)c12 [Example 184, 3-[methyl({5-methylthieno[2,3-d]pyrimidin-4-yl})amino]propanenitrile]
31 | > 10 µM | > 10 µM | Cc1csc2ncnc(NCCCN3CCCC3=O)c12 [Example 132, 1-[3-({5-methylthieno[2,3-d]pyrimidin-4-yl}amino)propyl]pyrrolidin-2-one]
32 | > 10 µM | > 10 µM | Cc1csc2ncnc(CNCc3ccc(Cl)cc3)c12 [Example 35, N-(4-chlorobenzyl)-1-(5-methylthieno[2,3-d]pyrimidin-4-yl)methanamine]
33 | > 10 µM | > 10 µM | Cc1csc2ncnc(N3CCCN(Cc4ccccc4)CC3)c12 [Example 242, 1-benzyl-4-{5-methylthieno[2,3-d]pyrimidin-4-yl}-1,4-diazepane]
34 | > 10 µM | > 10 µM | Cc1csc2ncnc(NC3CC3)c12 [Example 53, N-cyclopropyl-5-methylthieno[2,3-d]pyrimidin-4-amine]
35 | > 10 µM | > 10 µM | Cc1csc2ncnc(N3CCN(c4cccc(Cl)c4)CC3)c12 [Example 265, 1-(3-chlorophenyl)-4-{5-methylthieno[2,3-d]pyrimidin-4-yl}piperazine]
36 | > 10 µM | > 10 µM | COCCNc1ncnc2scc(C)c12 [Example 64, N-(2-methoxyethyl)-5-methylthieno[2,3-d]pyrimidin-4-amine]
37 | > 10 µM | > 10 µM | Cc1csc2ncnc(NC(C)CO)c12 (centres unmarked) [Example 63, 2-({5-methylthieno[2,3-d]pyrimidin-4-yl}amino)propan-1-ol]
